# Results published in US10072096B2, “Modified glycoprotein, protein-conjugate and process for the preparation thereof” (SynAffix B.V., priority 2013, dated 2018).
# Experiment: Stability studies of succinimides 67-69 in PBS with or without glutathione, product ratio by LC-MS
# Assay type: physicochemical
# Settings: 37° C.
# Experimental: One of succinimide conjugates 67-69 (1 mg) was dissolved in DMF (400 μL) followed by the addition of buffer solution 1, 2 or 3 (800 μL). Buffer solution 1 is PBS, buffer solution 2 is PBS+1 mM glutathione (GSH, reduced) and buffer solution 3 is PBS+1 mM glutathione (oxidized). Final concentration of glutathione (through dilution with DMF) is […]. The samples were incubated at 37° C. and measured in time. Ratio of products was determined by LC-MS.
# [1] = 48 h, buffer 2 (PBS+1 mM glutathione, reduced; final 0.71 mM)
# [2] = 48 h, buffer 3 (PBS+1 mM glutathione, oxidized; final 0.71 mM)
# [3] = 120 h, buffer 2 (PBS+1 mM glutathione, reduced; final 0.71 mM)
# [4] = 120 h, buffer 3 (PBS+1 mM glutathione, oxidized; final 0.71 mM)
SMILES,"Relative ratio: GS adduct (glutathione adduct formed by reverse Michael, then GSH addition) (48 h, buffer 1 (PBS))","Relative ratio: Hydro pro (hydrolyzed succinimide) (48 h, buffer 1 (PBS))","Relative ratio: Succinimide (starting succinimide) (48 h, buffer 1 (PBS))","Relative ratio: GS adduct (glutathione adduct formed by reverse Michael, then GSH addition) [1]",Relative ratio: Hydro pro (hydrolyzed succinimide) [1],Relative ratio: Succinimide (starting succinimide) [1],"Relative ratio: GS adduct (glutathione adduct formed by reverse Michael, then GSH addition) [2]",Relative ratio: Hydro pro (hydrolyzed succinimide) [2],Relative ratio: Succinimide (starting succinimide) [2],"Relative ratio: GS adduct (glutathione adduct formed by reverse Michael, then GSH addition) [3]",Relative ratio: Hydro pro (hydrolyzed succinimide) [3],Relative ratio: Succinimide (starting succinimide) [3],"Relative ratio: GS adduct (glutathione adduct formed by reverse Michael, then GSH addition) [4]",Relative ratio: Hydro pro (hydrolyzed succinimide) [4],Relative ratio: Succinimide (starting succinimide) [4],"Relative ratio: GS adduct (glutathione adduct formed by reverse Michael, then GSH addition) (120 h, buffer 1 (PBS))","Relative ratio: Hydro pro (hydrolyzed succinimide) (120 h, buffer 1 (PBS))","Relative ratio: Succinimide (starting succinimide) (120 h, buffer 1 (PBS))"
O=C(CCCN1C(=O)CC(SCC(=O)NCc2ccccc2)C1=O)NCCOCCOCCNC(=O)c1ccc2ccc3cccc4ccc1c2c34 (stereo not drawn) [Compound 67],0,43,57,41,18,41,31,12,57,52,38,3,59,28,9,,,
O=C(CCCN1C(=O)CC(SCCC(=O)NCc2ccccc2)C1=O)NCCOCCOCCNC(=O)c1ccc2ccc3cccc4ccc1c2c34 (stereo not drawn) [Compound 68],0,21,79,9,16,75,7,13,80,17,41,42,16,35,49,0,53,47
O=C(CCCN1C(=O)CC(SCCCC(=O)NCc2ccccc2)C1=O)NCCOCCOCCNC(=O)c1ccc2ccc3cccc4ccc1c2c34 (stereo not drawn) [Compound 69],0,25,75,6,14,79,4,11,85,12,39,49,10,33,57,0,63,37
